Type in all cases: in vivo
The subject of data set [1] is root-knot nematode (Meloidogyne spp). In words: Nematicide field trial on cucumber: root galling and yield. The conditions noted are these: Product Rate 1500 g ai/ha. The protocol:
Open ground grown cucumber (Cucumis sativus cv Carine) were grown on sandy soil with a natural root-knot nematode (Meloidogyne spp) population. Soil samples, collected prior to planting, contained on average 8 J2 juveniles per 100 g soil. A program of 4 applications with intervals of about 14 days was started six days after transplantation.
An experimental pattern at Complete Randomized Blocks with four replicas was adopted. Besides the experimental products, each test also included an untreated control and a treatment with the standard commercial product VYDATE 10L (10%) applied in accordance to label instructions.
[…] The level of nematode attack of the root system at the time of harvesting was assessed by means of the lamberti scoring.

Another data set concerns Meloidogyne nematodes. In words: Pot Assay 2: Meloidogyne infection of tomato, % infestation of roots. The conditions noted are these: RATE 0.05 mg; tomato in infested soil. The procedure:
The soil used in this assay originated from a plot, heavily infested with Meloidogyne nematodes. Part of this soil was sterilized by autoclaving and was used as negative control. Sandy soil, which was not infested with nematodes, was pursued from a commercial source.
Plastic seedling trays with wells of 60 ml capacity were filled with about 40 ml of soil per well. 5 ml of water per well was used for irrigation.
Compounds as described herein were tested in 4 different rates and with 12 replicates for each concentration. The compounds as described herein were stored as dry films of 4 different concentrations. The day of the application of the compounds, all the dry films were dissolved in 60 ml water and poured into the 12 replicate wells: 5 ml per well. Every tray of 12 wells was identified with a label, indicating compound and concentration used. The 4 final rates in the soil of the tested compound were approximately 0.05 mg, 0.20 mg, 1 mg and 5 mg. These amounts translate to field application rates respectively as 30, 120, 600 and 3000 g per hectare.
3-5 days after application of the tested compound, tomato seeds (cv. Rio Grande) were sown in the wells by hand, at about 2 cm deep. A light cover of vermiculite on the surface was used to avoid dehydration. Plants were irrigated by micro-nebulization 3-4 times per week at a rate of 3 L/m^2, weeded by hand and treated with fertilizers, fungicide and insecticides when needed.
Their resistance against nematode infection was monitored and the efficacy of compounds described herein as a nematicide was measured. Furthermore the phytotoxicity of the test compounds was evaluated.
Efficacy of the compounds described herein as nematicide was measured by giving the roots a percentage of infestation measured as follows. Plants were grown to reach good development of the roots, which corresponds to plants grown to about 10 cm high at about one month after emergence. After removal of the soil from the roots by rinsing with water, the roots were visually inspected and root galls were counted on 4 plants of the set of 12 replicate plants.
Positive control plants were treated with a 10 micromolar concentration of oxamyl (Vydate, 10% SL; the rate of 10 micromolar corresponds to a commercial rate of 20 l/ha), a known nematicide. Negative controls involved double negative controls (no compound, sterile soil), and single negative controls (no compound, with nematode infested soil).

The test system of data set [2] is sugar beet (variety GEA (KWS)). In words: Pot Assay 3: phytotoxicity, number of sugar beet plants emerged. The procedure:
Each compound or compound mixture as described herein was tested in 4 different rates with 4 replicates per rate. One pot per replicate was used in which 18 beava sugar beet seeds (variety GEA (KWS)) were sown. After crop germination, the number of plants was reduced to 10 plants. The 4 rates added to the soil of the tested compounds or compound mixtures were 0.05 mg, 0.20 mg, 1 mg and 5 mg. These amounts translate to field application rates respectively as 30, 120, 600 and 3000 g per hectare.
Phytotoxicity assessments were carried by assessing any possible effects of the chemicals on the crop, such as chlorosis, yellowing, stunting, in comparison to the untreated control without nematodes.

Another data set deals with tomato (cv. Rio Grande). In words: Pot Assay 2: root development (vigor of roots) of tomato. The conditions noted are these: RATE 0.05 mg; visual value 0 to 10 (10 equal to control). The protocol:
Phytotoxicity of compounds as described herein when used as a nematicide, was measured as follows. […] At that moment, plant emergence was assessed for the plants treated with any of the compounds as described herein, by counting the number of plants per compound-concentration.
Vigor of roots was also assessed once the plants are well established so as not to loose plants. To assess vigor of the plants or roots, a visual value ranging from 0 to 10 (0 no vigor, 10 equal to control) was scored per compound-concentration.

Structures are written as SMILES.

Turning to `CCCCc1c(C)nc(NCC)nc1OS(=O)(=O)N(C)C` [XLIII], the “Average yield of marketable fruits” value in data set [1] came out at 8.7 kg/plant/pot. Besides, the Average root galling in data set [1] (0-5 Lamberti scale) is on record as 1.5. Further, the “% INF. (% Infestation)” value in the data set with Meloidogyne nematodes is listed as 1.3%. For the same compound, the “# crops emerged (max 18)” value in data set [2] (Rate 1 mg) and in data set [2] (Rate 5 mg) was 18 each time. The “ROOT DEV.” value in the data set on tomato (cv. Rio Grande) is 7.8.

These data come from patent US20090209605A1, “NEMATICIDAL COMPOSITIONS” (Devgen N.V., priority 2004, published 2009).
